Measured values published in US12077503B2, “Substituted cyclic amides and their use as herbicides” (FMC CORPORATION, priority 2015, dated 2024).

How the values were obtained:
Type in all cases: in vivo
[1] = test system: pigweed (Amaranthus retroflexus); assay: Test A preemergence; conditions: Amaranthus retroflexus, pre-emergence, 240 h, Preemergence
[2] = test system: ragweed (common ragweed, Ambrosia elatior); assay: Test A preemergence; conditions: Ambrosia artemisiifolia, pre-emergence, 240 h, Preemergence
How it was run: (§1)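 Greenhouse, ~10 d after spray; visual injury vs untreated controls, 0 = no effect, 100 = complete control. Preemergence: directed soil spray over planted seeds. Postemergence: plants 2–10 cm, 1–2 leaf stage. Loam/sand blend. Compound in non-phytotoxic solvent with surfactant.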

Kochia (Kochia scoparia) [3] = assay: Test A preemergence; conditions: Bassia scoparia, pre-emergence, 240 h, Preemergence
How it was run: as §1

[4] = test system: ryegrass, Italian (Italian ryegrass, Lolium multiflorum); assay: Test A preemergence; conditions: Lolium multiflorum, pre-emergence, 240 h, Preemergence
How it was run: as §1

[5] = test system: giant foxtail (Setaria faberii); assay: Test A preemergence; conditions: Setaria faberi, pre-emergence, 240 h, Preemergence
How it was run: as §1

[6] = test system: barnyardgrass (Echinochloa crus-galli); assay: Test A preemergence; conditions: Echinochloa crus-galli, pre-emergence, 240 h, Preemergence
How it was run: as §1

[7] = test system: ducksalad (Heteranthera limosa); assay: Test B flooded paddy test; conditions: Heteranthera limosa, 360 h, Flood, 250 g ai/ha; visually evaluated after 13 to 15 d; read-out: Plant response rating, Ducksalad (0 to 100 scale where 0 is no effect and 100 is complete control)
How it was run: (§2)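 Flooding to 3 cm over soil accompanied treatment, which consisted of adding compound to the standing water around 2-leaf plants; depth was then maintained. Visual assessment versus controls followed at 13 to 15 d (scale 0–100, 0 meaning no effect).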

[8] = test system: sedge, umbrella (small-flower umbrella sedge, Cyperus difformis); assay: Test B flooded paddy test; conditions: Cyperus difformis, 360 h, Flood, 250 g ai/ha; visually evaluated after 13 to 15 d; read-out: Plant response rating, Sedge, Umbrella (0 to 100 scale where 0 is no effect and 100 is complete control)
How it was run: as §2

rice (Oryra sativa) = assay: Test B flooded paddy test; conditions: Oryza sativa, 360 h, Flood, 250 g ai/ha; visually evaluated after 13 to 15 d; read-out: Plant response rating, Rice (0 to 100 scale where 0 is no effect and 100 is complete control)
How it was run: as §2

[9] = test system: barnyardgrass (Echinochloa crus-galli); assay: Test B flooded paddy test; conditions: Echinochloa crus-galli, 360 h, Flood, 250 g ai/ha; visually evaluated after 13 to 15 d; read-out: Plant response rating, Barnyardgrass (0 to 100 scale where 0 is no effect and 100 is complete control)
How it was run: as §2

[10] = test system: blackgrass (Alopecurus myosuroides); assay: Test A postemergence; conditions: Alopecurus myosuroides, post-emergence, 240 h, Postemergence, read-out: Blackgrass plant response rating (0 to 100 scale)
How it was run: as §1

[11] = test system: pigweed (Amaranthus retroflexus); assay: Test A postemergence; conditions: Amaranthus retroflexus, post-emergence, 240 h, Postemergence, read-out: Pigweed plant response rating (0 to 100 scale)
How it was run: as §1

[12] = test system: ragweed (common ragweed, Ambrosia elatior); assay: Test A postemergence; conditions: Ambrosia artemisiifolia, post-emergence, 240 h, Postemergence, read-out: Ragweed plant response rating (0 to 100 scale)
How it was run: as §1

Kochia (Kochia scoparia) [13] = assay: Test A postemergence; conditions: Bassia scoparia, post-emergence, 240 h, Postemergence, read-out: Kochia plant response rating (0 to 100 scale)
How it was run: as §1

corn (Zea mays) = assay: Test A postemergence; conditions: Zea mays, post-emergence, 240 h, Postemergence, read-out: Corn plant response rating (0 to 100 scale)
How it was run: as §1

[14] = test system: Galium (catchweed bedstraw, Galium aparine); assay: Test A postemergence; conditions: Galium, post-emergence, 240 h, Postemergence, read-out: Galium plant response rating (0 to 100 scale)
How it was run: as §1

[15] = test system: ryegrass, Italian (Italian ryegrass, Lolium multiflorum); assay: Test A postemergence; conditions: Lolium multiflorum, post-emergence, 240 h, Postemergence, read-out: Ryegrass, Italian plant response rating (0 to 100 scale)
How it was run: as §1

[16] = test system: giant foxtail (Setaria faberii); assay: Test A postemergence; conditions: Setaria faberi, post-emergence, 240 h, Postemergence, read-out: Foxtail, Giant plant response rating (0 to 100 scale)
How it was run: as §1

[17] = test system: barnyardgrass (Echinochloa crus-galli); assay: Test A postemergence; conditions: Echinochloa crus-galli, post-emergence, 240 h, Postemergence
How it was run: as §1

[18] = test system: wheat (Triticum aestivum); assay: Test A postemergence; conditions: Triticum aestivum, post-emergence, 240 h, Postemergence, read-out: Wheat plant response rating (0 to 100 scale)
How it was run: as §1

[19] = 125 g ai/ha, visual rating about 10 d after treatment
[20] = 31 g ai/ha, 0 is no effect, 100 is complete control

O=C1NC[C@H](c2cc(Br)cc(Br)c2)[C@H]1C(=O)Nc1cccc(F)c1F [Compound 1366] showed a pest or weed control at 31 g/ha ([1]; 31 g ai/ha, 0 to 100 scale where 0 is no effect and 100 is complete control, read-out: Pigweed plant response rating) of 0%, a pest or weed control at 125 g/ha ([1]; 125 g ai/ha, 0 to 100 scale (0 no effect, 100 complete control), read-out: Plant response rating, Pigweed) of 0% and a pest or weed control at 31 g/ha ([2]; 31 g ai/ha, 0 to 100 scale where 0 is no effect and 100 is complete control, read-out: Ragweed plant response rating) of 0%. The pest or weed control at 125 g/ha ([2]; 125 g ai/ha, 0 to 100 scale (0 no effect, 100 complete control), read-out: Plant response rating, Ragweed) was 0%, the pest or weed control at 31 g/ha (Kochia (Kochia scoparia) [3]; 31 g ai/ha, 0 to 100 scale where 0 is no effect and 100 is complete control, read-out: Kochia plant response rating) was 0% and the pest or weed control at 125 g/ha (Kochia (Kochia scoparia) [3]; 125 g ai/ha, 0 to 100 scale (0 no effect, 100 complete control), read-out: Plant response rating, Kochia) was 0%. For the same compound, the pest or weed control at 31 g/ha ([4]; 31 g ai/ha, 0 to 100 scale where 0 is no effect and 100 is complete control, read-out: Ryegrass, Italian plant response rating) was 0%, the pest or weed control at 125 g/ha ([4]; 125 g ai/ha, 0 to 100 scale (0 no effect, 100 complete control), read-out: Plant response rating, Ryegrass, Italian) was 10% and the pest or weed control at 31 g/ha ([5]; 31 g ai/ha, 0 to 100 scale where 0 is no effect and 100 is complete control, read-out: Foxtail, Giant plant response rating) was 50%. For the same compound, the pest or weed control at 125 g/ha ([5]; 125 g ai/ha, 0 to 100 scale (0 no effect, 100 complete control), read-out: Plant response rating, Foxtail, Giant) was 90%, the pest or weed control at 31 g/ha ([6]; 31 g ai/ha, 0 to 100 scale where 0 is no effect and 100 is complete control, read-out: Barnyardgrass plant response rating) was 60% and the pest or weed control at 125 g/ha ([6]; 125 g ai/ha, 0 to 100 scale (0 no effect, 100 complete control), read-out: Plant response rating, Barnyardgrass) was 70%. For the same compound, the pest or weed control at 250 g/ha [7] was 80%, the pest or weed control at 250 g/ha [8] was 0% and the pest or weed control at 250 g/ha (rice (Oryra sativa)) was 0%. It also gave a pest or weed control at 250 g/ha [9] of 40%, a pest or weed control at 125 g/ha [10, 19] of 0% and a pest or weed control at 31 g/ha [10, 20] of 0%. For the same compound, the pest or weed control at 125 g/ha [11, 19] was 80%, the pest or weed control at 31 g/ha [11, 20] was 0% and the pest or weed control at 125 g/ha [12, 19] was 0%. For the same compound, the pest or weed control at 31 g/ha [12, 20] was 0%, the pest or weed control at 125 g/ha (Kochia (Kochia scoparia) [13]; [19]) was 0% and the pest or weed control at 31 g/ha (Kochia (Kochia scoparia) [13]; [20]) was 0%. It also gave a plant injury at 125 g/ha (corn (Zea mays); [19]) of 0%, a plant injury at 31 g/ha (corn (Zea mays); [20]) of 0% and a pest or weed control at 125 g/ha [14, 19] of 70%. For the same compound, the pest or weed control at 31 g/ha [14, 20] was 0%, the pest or weed control at 125 g/ha [15, 19] was 0% and the pest or weed control at 31 g/ha [15, 20] was 0%. The pest or weed control at 125 g/ha [16, 19] was 70%, the pest or weed control at 31 g/ha [16, 20] was 30% and the pest or weed control at 125 g/ha ([17]; 125 g ai/ha, visual rating about 10 d after treatment, read-out: Barnyardgrass plant response rating (0 to 100 scale, 0 no effect, 100 complete control)) was 70%. For the same compound, the pest or weed control at 31 g/ha ([17]; 31 g ai/ha, 0 is no effect, 100 is complete control, read-out: Barnyardgrass plant response rating (0 to 100 scale)) was 20%, the plant injury at 125 g/ha [18, 19] was 0% and the plant injury at 31 g/ha [18, 20] was 0%.
